Data taken from article PMC7852560 (Neuropsychopharmacology, 2020).
“And” between values parts separate entries of the source, which are not always exact repeats. Identical values can stand only once.

Experiments:
Dopamine D1 = Dopamine D1 (Homo sapiens, UniProt P21728); test: SafetyScreen44 panel: Dopamine D1; format: binding; conditions: 1 µM
Procedure: (§1) The screen assesses the selectivity of the compound on a diverse panel of targets that includes GPCRs, drug transporters, ion channels, nuclear receptors, kinases, and other non-kinase enzymes. The screen employs radioligand binding or enzyme assays for these 44 targets.
(§2) For receptor assays, binding was calculated as percent inhibition of the binding of a radioactively labeled ligand specific for each target. For enzyme assays, the inhibition effect was calculated as percent inhibition of control enzyme activity. Tests were performed in duplicate, and results are averages of those two tests. See https://www.eurofinsdiscoveryservices.com.

GluN1KD mice = test: Pre-pulse inhibition in GluN1KD mice; format: in vivo; conditions: ABM300 10 mg/kg, OLA 1 mg/kg i.p.
Procedure: Pre-Pulse Inhibition (PPI): PPI of the acoustic startle response was measured on day 3, via SR-LAB equipment and software from San Diego Instruments. Accelerometers were calibrated to 700±5 mV and output voltages were amplified and analyzed for voltage changes using SR Analysis (San Diego Instruments, San Diego, CA, USA), and exported as an excel file. Background white noise was maintained at 65dB. PPI was measured in a 30-min test with 80 randomized trials of: (1) 10 trials pulse alone (2) 10 trials pre-pulse alone (for each pre-pulse), (3) 10 trials pre-pulse plus pulse (for each pre-pulse), and (4) 10 trials no pulse. 5 pulse alone trials were performed before and after the 80 trials, totaling 90 trials per run. The pre-pulse (4dB, 8dB, or 16dB) was presented 100ms prior to the startle pulse […]. The inter-stimulus interval (ISI) was randomized between 5 and 20s. Experimental mice were placed in a cylindrical tube on a platform in a soundproof chamber. Mice were allowed to acclimatize in the chamber and to the background noise for 300s, followed by 5 consecutive pulse alone trials, then by 80 randomized trials (as described above) and then 5 consecutive pulse alone trials. Pre-pulse inhibition was measured as a decrease in the amplitude of startle response to a 100dB acoustic startle pulse, following each pre-pulse (4dB, 8dB and 16dB).

Male Sprague Dawley rats [1] = conditions: 10 mg/kg i.p.
Procedure: (§3) Male Sprague Dawley rats (PD>63) were trained on a CAR protocol and responding following drug exposure was determined. […] Animals were trained to learn a house light (CS) as predictive of an avoidable 0.6mA scrambled foot shock (US). Each session consisted of 50 trials and animals avoided >70% of trials on the final acquisition session were tested for CAR during vehicle baseline, drug exposure, and re-emergence. In addition to CAR testing, both temperature and catalepsy were recorded in these animals (measure of potential CB1R agonism). Temperature: recorded on first day of drug exposure, prior to injection and 60-90-min. following drug exposure.

NMDA = test: SafetyScreen44 panel: NMDA; format: binding; conditions: 1 µM
Description: (§4) See https://www.eurofinsdiscoveryservices.com.

Dopamine D2 = Dopamine D2 (Homo sapiens, UniProt P14416); test: SafetyScreen44 panel: Dopamine D2; format: binding; conditions: 1 µM
Procedure: as §1, §2

[2] = tested on: 44 different receptors, ion channels and enzymes; conditions: 1 µM
Procedure: as §1, §2

5HT1A = molecular target: T1, 5HT1A (Homo sapiens, UniProt P08908); test: SafetyScreen44 panel: 5HT1A; format: binding; conditions: 1 µM
T1 construct: Eurofins Cerep
T1 sequence (P08908 1-422): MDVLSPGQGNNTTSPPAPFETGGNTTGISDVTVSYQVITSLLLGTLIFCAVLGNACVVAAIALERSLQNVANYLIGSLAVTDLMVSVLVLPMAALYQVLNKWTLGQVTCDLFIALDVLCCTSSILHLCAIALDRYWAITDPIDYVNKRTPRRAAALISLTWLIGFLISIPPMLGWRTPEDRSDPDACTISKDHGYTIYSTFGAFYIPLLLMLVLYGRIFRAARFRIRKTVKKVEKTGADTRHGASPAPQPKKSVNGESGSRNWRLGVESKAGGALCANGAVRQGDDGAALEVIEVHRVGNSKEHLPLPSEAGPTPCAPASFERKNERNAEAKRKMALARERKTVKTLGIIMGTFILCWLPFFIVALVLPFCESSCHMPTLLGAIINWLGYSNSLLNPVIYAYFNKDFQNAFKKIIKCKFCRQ
Procedure: as §1, §2

5HT2B = molecular target: T2, 5HT2B (Homo sapiens, UniProt P41595); test: SafetyScreen44 panel: 5HT2B; format: binding; conditions: 1 µM
T2 construct: Eurofins Cerep
Description: as §4

CB1R = CB1R (Homo sapiens, UniProt P21554); test: Equilibrium binding assay with [3H]CP55,940 in hCB1R CHO cells
Procedure: Non-specific binding was defined in the presence of 10 µM WIN55,212-2.
Radioactivity was quantitated by liquid scintillation spectrometry. Specific binding was defined as the difference between the binding that occurred in the presence and absence of 10 µM of WIN55212. Data were analyzed by nonlinear regression analysis of allosteric modulator titration model using GraphPad Prism 8.0 (GraphPad, San Diego, CA).

in vivo = test: in vivo; design: species or system male C57Bl/6 mice
Procedure: Microsomal stability assays were conducted by Cyprotex Ltd (Macclesfield, UK).
Blood samples (approximately 60 µL; n=3 mice per time-point) were taken at 0.08, 0.25, 0.5, 1, 2, 4, 6 and 8 hrs. Immediately after collection of blood, brain samples were collected from the set of three mice at each time point. Plasma samples were separated by centrifugation of whole blood, while brain samples were homogenized in ice-cold phosphate buffer saline (pH 7.4). Total homogenate volume was three times the brain weight. Plasma and homogenates were stored below -70±10 °C until analysis. The extraction procedure for plasma/brain samples and the spiked plasma/brain calibration standards were identical. To a 25 µL volume of study sample (dilution factor applied to some samples) or spiked plasma/brain calibration standard, 100 µL of internal standard prepared in acetonitrile (Glipizide, 500 ng/mL) was added, except for blank where 100 µL of acetonitrile was added. […] Pharmacokinetic parameters were calculated using the non-compartmental analysis tool of Phoenix WinNonlin® (Version 7.0). Areas under the concentration time curve (AUC) values were calculated by linear trapezoidal rule.

Male Sprague Dawley rats [3] = test: Conditioned avoidance response (CAR); format: in vivo; conditions: rat, in vivo
Procedure: as §3

5HT2A = molecular target: T3, 5HT2A (Homo sapiens, UniProt P28223); test: SafetyScreen44 panel: 5HT2A; format: binding; conditions: 1 µM
T3 construct: Eurofins Cerep
Description: as §4

[4] = male, C57Bl/6, mouse, ip, 10 mg/kg

Sequence of CB1R (P21554 whole entry): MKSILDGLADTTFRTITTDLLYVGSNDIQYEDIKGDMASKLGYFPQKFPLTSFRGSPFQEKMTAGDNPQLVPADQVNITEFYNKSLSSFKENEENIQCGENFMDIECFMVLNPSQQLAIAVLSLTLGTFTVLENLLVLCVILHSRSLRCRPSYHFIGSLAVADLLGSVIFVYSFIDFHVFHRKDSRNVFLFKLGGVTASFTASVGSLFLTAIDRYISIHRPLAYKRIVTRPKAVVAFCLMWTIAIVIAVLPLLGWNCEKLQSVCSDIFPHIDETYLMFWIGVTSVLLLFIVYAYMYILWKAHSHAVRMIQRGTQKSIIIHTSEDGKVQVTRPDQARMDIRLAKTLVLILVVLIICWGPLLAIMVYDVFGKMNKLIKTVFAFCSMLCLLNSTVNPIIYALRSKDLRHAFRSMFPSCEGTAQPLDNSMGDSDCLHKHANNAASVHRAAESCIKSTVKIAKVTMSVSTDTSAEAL
T3 sequence (P28223 whole entry): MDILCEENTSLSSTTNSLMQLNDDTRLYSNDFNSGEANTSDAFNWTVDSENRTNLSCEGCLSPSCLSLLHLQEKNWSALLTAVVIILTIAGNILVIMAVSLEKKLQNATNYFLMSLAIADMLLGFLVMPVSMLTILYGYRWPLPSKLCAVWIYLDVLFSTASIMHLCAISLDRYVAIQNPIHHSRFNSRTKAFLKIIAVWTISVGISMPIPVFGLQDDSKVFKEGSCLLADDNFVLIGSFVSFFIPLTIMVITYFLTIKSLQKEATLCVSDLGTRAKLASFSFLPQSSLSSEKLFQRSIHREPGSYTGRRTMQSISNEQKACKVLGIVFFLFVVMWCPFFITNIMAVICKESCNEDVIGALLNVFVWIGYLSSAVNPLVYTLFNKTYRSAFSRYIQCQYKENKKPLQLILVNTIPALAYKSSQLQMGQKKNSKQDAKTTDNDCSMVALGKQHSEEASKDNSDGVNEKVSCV
Sequence of Dopamine D1 (P21728 whole entry): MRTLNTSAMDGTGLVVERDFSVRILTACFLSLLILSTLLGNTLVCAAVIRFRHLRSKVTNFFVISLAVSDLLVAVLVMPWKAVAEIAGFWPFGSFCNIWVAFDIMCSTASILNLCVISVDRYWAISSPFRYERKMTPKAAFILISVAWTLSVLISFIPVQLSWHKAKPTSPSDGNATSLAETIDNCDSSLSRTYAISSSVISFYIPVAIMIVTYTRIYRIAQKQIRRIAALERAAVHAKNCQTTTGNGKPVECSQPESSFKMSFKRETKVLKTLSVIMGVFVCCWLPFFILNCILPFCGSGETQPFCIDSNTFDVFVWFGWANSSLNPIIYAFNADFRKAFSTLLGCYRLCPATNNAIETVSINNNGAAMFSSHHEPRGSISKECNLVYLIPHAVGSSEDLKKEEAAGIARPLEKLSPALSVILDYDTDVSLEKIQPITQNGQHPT
T2 sequence (P41595 whole entry): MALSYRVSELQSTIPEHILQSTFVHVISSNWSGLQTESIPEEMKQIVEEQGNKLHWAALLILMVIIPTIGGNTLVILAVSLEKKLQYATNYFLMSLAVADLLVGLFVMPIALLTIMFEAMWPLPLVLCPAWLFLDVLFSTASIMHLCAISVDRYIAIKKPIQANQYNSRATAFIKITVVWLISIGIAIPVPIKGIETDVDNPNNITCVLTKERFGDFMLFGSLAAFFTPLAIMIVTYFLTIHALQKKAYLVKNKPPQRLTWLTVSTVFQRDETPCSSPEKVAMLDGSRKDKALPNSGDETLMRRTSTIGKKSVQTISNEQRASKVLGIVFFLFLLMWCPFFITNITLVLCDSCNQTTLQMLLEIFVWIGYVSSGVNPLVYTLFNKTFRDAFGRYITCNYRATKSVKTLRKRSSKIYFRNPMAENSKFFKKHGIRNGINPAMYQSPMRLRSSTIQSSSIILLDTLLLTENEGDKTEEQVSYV
Sequence of Dopamine D2 (P14416 other isoform, or with tags, fused parts or gaps): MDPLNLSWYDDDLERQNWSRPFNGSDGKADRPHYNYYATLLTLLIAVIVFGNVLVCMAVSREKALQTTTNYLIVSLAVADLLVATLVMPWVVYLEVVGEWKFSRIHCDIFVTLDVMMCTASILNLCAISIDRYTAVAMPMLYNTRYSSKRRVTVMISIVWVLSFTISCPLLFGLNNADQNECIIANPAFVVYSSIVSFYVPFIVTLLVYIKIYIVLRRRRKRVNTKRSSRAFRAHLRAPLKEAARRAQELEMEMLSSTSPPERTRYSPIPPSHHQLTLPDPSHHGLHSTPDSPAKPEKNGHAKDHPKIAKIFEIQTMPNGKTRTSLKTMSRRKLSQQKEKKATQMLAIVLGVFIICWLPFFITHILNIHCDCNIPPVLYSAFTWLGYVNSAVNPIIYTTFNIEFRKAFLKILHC

With `CCc1c(-c2nnc(Nc3ccccc3)o2)[nH]c2ccc(Cl)cc12` [ABM300, 5-(5-chloro-3-ethyl-1H-indol-2-yl)-N-phenyl-1,3,4-oxadiazol-2-amine] the “binding to Dopamine D1” value (Dopamine D1) was “did not display any significant binding”, the acoustic startle response (GluN1KD mice) was “did not respond” and the “sensorimotor gating deficits (PPI; 4, 8, 16 dB)” value (GluN1KD mice) was “did not respond”. For the same compound, the catalepsy (Male Sprague Dawley rats [1]) was “did not induce catalepsy”, the “changes in body temperature” value (Male Sprague Dawley rats [1]) was “did not induce catalepsy, or changes in body temperature” and the “binding to NMDA” value (NMDA) was “did not display any significant binding”. The “binding to Dopamine D2” value (Dopamine D2) was “did not display any significant binding”, the “binding to SafetyScreen44 targets” value [2] was “did not display any significant binding” and the “binding to 5HT1A” value (5HT1A) was “did not display any significant binding”. The “binding to 5HT2B” value (5HT2B) was “did not display any significant binding”, the Kb (CB1R) was 178 nM and the EC50 (CB1R; EC50, increase in specific binding of [3H]CP55,940, hCB1R CHO, [3H]CP55,940 0.5 nM) was 132 nM. The “Emax, increase in specific binding of [3H]CP55,940” value (CB1R; hCB1R CHO, [3H]CP55,940 0.5 nM) was 328 ± 47%, the EC50 (CB1R; pEC50, increase in specific binding of [3H]CP55,940, hCB1R CHO, [3H]CP55,940 0.5 nM) was 126 nM and the concentration at 30 min (in vivo; male, C57Bl/6, mouse, 10 mg/kg i.p., at 30 min, read-out: brain concentration) was 374 ± 39 ng/mL. For the same compound, the AUC(0-t) (in vivo; [4]) was 2050 ng·h/mL, the Cmax (in vivo; [4]) was 866 ng/mL and 412 ng/g and the Tmax (in vivo; male, C57Bl/6, mouse, ip, 10 mg/kg, Tmax) was 0.5 h. For the same compound, the AUClast (in vivo; mouse, ip, 10 mg/kg) was 1577.92 ng·h/g, the half-life (in vivo; mouse, ip, 10 mg/kg i.p., male C57Bl/6 mice) was ~2 h and the “avoidance behavior in CAR” value (Male Sprague Dawley rats [3]) was “no effect”. For the same compound, the “binding to 5HT2A” value (5HT2A) was “did not display any significant binding”.
